Test results from paper PMC11897524 (Frontiers in Pharmacology, 2025).

How the values were obtained:
STAT5b = STAT5b (Homo sapiens, UniProt P51692); experiment: Binding affinity to BET and STAT family members
BRD4 = BRD4 (Homo sapiens, UniProt O60885); experiment: AlphaScreen BRD4 binding inhibition assay; design: purchased Abcam
PTK6 = PTK6 (Homo sapiens, UniProt Q13882); experiment: SelectScreen Z′-LYTE kinase assay; assay type: biochemical
Procedure: (§1) The kinase selectivity profile of BST-4 was performed by the SelectScreen kinase profiling service (Thermo Fisher Scientific). Kinase selectivity assay was performed using Z′-LYTE ™ screening protocol kit. Briefly, the test compounds were screened in 1% DMSO (final). For 10-point titrations, perform a 3-fold dilution starting at a starting concentration of 50 µM. Then 2.5 µL 4× test compound, 2.4 µL kinase buffer, 5 µL 2× kinase mixture and 2.5 µL 4× ATP solution was added in black 384-well plate. After shaking for 30 s, the plates were incubated for 60 min at room temperature. Add developing reagent solution and shake the plate for 30 s, then incubate for 1 h at room temperature. The Fluorescence intensity per well was read using a fluorescence plate reader. SelectScreen® Kinase Profiling Service used XLfit from IDBS. The dose response curve was curve fit to model number 205 (sigmoidal dose-response model) and inhibition rates were calculated. 50% inhibition was used as a activity threshold. IC50 values were calculated based on curve fitting.

AXL = AXL (Homo sapiens, UniProt P30530); experiment: SelectScreen Z′-LYTE kinase assay; assay type: biochemical
Procedure: as §1

KIT = KIT (Homo sapiens, UniProt P10721); experiment: SelectScreen Z′-LYTE kinase assay; assay type: biochemical
Procedure: as §1

PTK2B = PTK2B (Homo sapiens, UniProt Q14289); experiment: SelectScreen Z′-LYTE kinase assay; assay type: biochemical
Procedure: as §1

ABL1 = ABL1 (Homo sapiens, UniProt P00519); experiment: SelectScreen Z′-LYTE kinase assay; assay type: biochemical
Procedure: as §1

NTRK2 = NTRK2 (Homo sapiens, UniProt Q16620); experiment: SelectScreen Z′-LYTE kinase assay; assay type: biochemical
Procedure: as §1

ZAP70 = ZAP70 (Homo sapiens, UniProt P43403); experiment: SelectScreen Z′-LYTE kinase assay; assay type: biochemical
Sequence of ZAP70 (P43403 whole entry): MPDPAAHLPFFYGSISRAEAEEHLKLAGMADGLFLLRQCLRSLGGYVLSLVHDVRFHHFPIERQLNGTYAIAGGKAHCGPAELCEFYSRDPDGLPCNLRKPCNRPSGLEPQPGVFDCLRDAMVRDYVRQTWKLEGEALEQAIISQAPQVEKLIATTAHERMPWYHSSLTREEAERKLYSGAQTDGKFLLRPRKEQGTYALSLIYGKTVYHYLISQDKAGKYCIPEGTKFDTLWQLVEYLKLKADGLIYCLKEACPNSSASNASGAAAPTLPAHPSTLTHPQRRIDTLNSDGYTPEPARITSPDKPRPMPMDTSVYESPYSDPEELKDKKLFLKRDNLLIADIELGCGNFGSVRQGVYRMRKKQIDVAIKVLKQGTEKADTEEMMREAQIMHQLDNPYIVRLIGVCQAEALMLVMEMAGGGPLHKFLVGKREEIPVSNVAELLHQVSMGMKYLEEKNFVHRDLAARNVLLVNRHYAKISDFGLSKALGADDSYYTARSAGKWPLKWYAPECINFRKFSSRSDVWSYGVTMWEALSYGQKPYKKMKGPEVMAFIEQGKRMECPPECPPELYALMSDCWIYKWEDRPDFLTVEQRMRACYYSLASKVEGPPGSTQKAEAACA
Procedure: as §1

CSK = CSK (Homo sapiens, UniProt P41240); experiment: SelectScreen Z′-LYTE kinase assay; assay type: biochemical
Procedure: as §1

MERTK = MERTK (Homo sapiens, UniProt Q12866); experiment: SelectScreen Z′-LYTE kinase assay; assay type: biochemical
Procedure: as §1

SRC = SRC (Homo sapiens, UniProt P12931); experiment: SelectScreen Z′-LYTE kinase assay; assay type: biochemical
Procedure: as §1

TNK2 = TNK2 (Homo sapiens, UniProt Q07912); experiment: SelectScreen Z′-LYTE kinase assay; assay type: biochemical
Procedure: as §1

EPHA3 = EPHA3 (Homo sapiens, UniProt P29320); experiment: SelectScreen Z′-LYTE kinase assay; assay type: biochemical
Procedure: as §1

TYK2 = TYK2 (Homo sapiens, UniProt P29597); experiment: SelectScreen Z′-LYTE kinase assay; assay type: biochemical
Procedure: as §1

BMX = BMX (Homo sapiens, UniProt P51813); experiment: SelectScreen Z′-LYTE kinase assay; assay type: biochemical
Procedure: as §1

TYRO3 = TYRO3 (Homo sapiens, UniProt Q06418); experiment: SelectScreen Z′-LYTE kinase assay; assay type: biochemical
Procedure: as §1

ERBB2 = ERBB2 (Homo sapiens, UniProt P04626); experiment: SelectScreen Z′-LYTE kinase assay; assay type: biochemical
Procedure: as §1

TXK = TXK (Homo sapiens, UniProt P42681); experiment: SelectScreen Z′-LYTE kinase assay; assay type: biochemical
Sequence of TXK (P42681 whole entry): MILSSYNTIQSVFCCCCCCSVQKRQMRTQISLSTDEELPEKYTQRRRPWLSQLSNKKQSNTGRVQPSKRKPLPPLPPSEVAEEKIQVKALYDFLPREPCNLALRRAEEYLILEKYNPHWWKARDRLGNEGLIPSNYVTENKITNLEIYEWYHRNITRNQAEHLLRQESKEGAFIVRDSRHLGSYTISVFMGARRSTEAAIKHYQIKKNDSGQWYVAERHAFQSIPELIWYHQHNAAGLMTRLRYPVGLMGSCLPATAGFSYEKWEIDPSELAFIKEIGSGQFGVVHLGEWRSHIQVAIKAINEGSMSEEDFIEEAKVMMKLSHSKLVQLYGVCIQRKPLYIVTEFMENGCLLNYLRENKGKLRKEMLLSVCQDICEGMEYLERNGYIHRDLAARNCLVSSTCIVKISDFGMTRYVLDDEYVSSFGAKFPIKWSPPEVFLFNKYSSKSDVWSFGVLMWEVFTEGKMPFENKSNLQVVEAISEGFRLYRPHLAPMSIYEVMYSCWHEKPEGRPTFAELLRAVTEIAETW
Procedure: as §1

MET = MET (Homo sapiens, UniProt P08581); experiment: SelectScreen Z′-LYTE kinase assay; assay type: biochemical
Procedure: as §1

ROS1 = ROS1 (Homo sapiens, UniProt P08922); experiment: SelectScreen Z′-LYTE kinase assay; assay type: biochemical
Procedure: as §1

FGFR4 = FGFR4 (Homo sapiens, UniProt P22455); experiment: SelectScreen Z′-LYTE kinase assay; assay type: biochemical
Procedure: as §1

EPHA2 = EPHA2 (Homo sapiens, UniProt P29317); experiment: SelectScreen Z′-LYTE kinase assay; assay type: biochemical
Procedure: as §1

FRK = FRK (Homo sapiens, UniProt P42685); experiment: SelectScreen Z′-LYTE kinase assay; assay type: biochemical
Sequence of FRK (P42685 whole entry): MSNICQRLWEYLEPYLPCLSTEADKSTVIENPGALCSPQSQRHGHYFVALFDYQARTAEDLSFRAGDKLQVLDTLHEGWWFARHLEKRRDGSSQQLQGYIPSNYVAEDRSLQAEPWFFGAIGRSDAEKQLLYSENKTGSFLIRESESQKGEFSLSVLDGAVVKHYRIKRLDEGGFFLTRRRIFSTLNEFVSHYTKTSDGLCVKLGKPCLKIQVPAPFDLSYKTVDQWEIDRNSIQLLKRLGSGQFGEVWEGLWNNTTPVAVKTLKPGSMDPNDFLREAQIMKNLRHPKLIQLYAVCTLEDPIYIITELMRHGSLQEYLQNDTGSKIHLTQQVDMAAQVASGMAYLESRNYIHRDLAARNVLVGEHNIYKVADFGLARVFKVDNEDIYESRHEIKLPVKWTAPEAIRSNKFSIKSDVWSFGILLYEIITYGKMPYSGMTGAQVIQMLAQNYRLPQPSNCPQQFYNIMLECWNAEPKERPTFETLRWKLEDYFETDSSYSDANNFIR
Procedure: as §1

FGFR3 = FGFR3 (Homo sapiens, UniProt P22607); experiment: SelectScreen Z′-LYTE kinase assay; assay type: biochemical
Sequence of FGFR3 (P22607 23-806): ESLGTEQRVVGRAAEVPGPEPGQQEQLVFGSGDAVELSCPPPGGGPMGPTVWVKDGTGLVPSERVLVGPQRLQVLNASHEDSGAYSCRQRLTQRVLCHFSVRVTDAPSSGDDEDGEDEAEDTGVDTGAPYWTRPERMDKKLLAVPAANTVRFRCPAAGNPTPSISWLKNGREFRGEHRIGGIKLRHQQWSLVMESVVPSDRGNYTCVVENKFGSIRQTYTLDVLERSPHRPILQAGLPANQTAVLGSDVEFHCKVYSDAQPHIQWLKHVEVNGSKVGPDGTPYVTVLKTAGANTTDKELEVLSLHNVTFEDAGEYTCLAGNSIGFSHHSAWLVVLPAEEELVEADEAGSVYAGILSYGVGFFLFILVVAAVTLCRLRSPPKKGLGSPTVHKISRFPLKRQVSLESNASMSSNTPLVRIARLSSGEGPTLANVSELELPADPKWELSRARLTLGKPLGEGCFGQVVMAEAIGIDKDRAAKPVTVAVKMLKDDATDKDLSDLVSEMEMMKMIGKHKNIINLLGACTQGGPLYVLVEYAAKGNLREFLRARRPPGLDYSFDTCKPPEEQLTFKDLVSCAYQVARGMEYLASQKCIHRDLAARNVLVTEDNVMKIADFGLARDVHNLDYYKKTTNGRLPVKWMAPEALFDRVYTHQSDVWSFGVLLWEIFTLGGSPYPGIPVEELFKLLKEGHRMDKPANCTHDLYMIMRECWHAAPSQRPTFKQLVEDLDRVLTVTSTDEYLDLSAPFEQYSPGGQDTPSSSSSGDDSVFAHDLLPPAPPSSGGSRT
Procedure: as §1

EPHB3 = EPHB3 (Homo sapiens, UniProt P54753); experiment: SelectScreen Z′-LYTE kinase assay; assay type: biochemical
Procedure: as §1

EPHB4 = EPHB4 (Homo sapiens, UniProt P54760); experiment: SelectScreen Z′-LYTE kinase assay; assay type: biochemical
Procedure: as §1

BTK = BTK (Homo sapiens, UniProt Q06187); experiment: SelectScreen Z′-LYTE kinase assay; assay type: biochemical
Procedure: as §1

MST1R = MST1R (Homo sapiens, UniProt Q04912); experiment: SelectScreen Z′-LYTE kinase assay; assay type: biochemical
Sequence of MST1R (Q04912 25-1400): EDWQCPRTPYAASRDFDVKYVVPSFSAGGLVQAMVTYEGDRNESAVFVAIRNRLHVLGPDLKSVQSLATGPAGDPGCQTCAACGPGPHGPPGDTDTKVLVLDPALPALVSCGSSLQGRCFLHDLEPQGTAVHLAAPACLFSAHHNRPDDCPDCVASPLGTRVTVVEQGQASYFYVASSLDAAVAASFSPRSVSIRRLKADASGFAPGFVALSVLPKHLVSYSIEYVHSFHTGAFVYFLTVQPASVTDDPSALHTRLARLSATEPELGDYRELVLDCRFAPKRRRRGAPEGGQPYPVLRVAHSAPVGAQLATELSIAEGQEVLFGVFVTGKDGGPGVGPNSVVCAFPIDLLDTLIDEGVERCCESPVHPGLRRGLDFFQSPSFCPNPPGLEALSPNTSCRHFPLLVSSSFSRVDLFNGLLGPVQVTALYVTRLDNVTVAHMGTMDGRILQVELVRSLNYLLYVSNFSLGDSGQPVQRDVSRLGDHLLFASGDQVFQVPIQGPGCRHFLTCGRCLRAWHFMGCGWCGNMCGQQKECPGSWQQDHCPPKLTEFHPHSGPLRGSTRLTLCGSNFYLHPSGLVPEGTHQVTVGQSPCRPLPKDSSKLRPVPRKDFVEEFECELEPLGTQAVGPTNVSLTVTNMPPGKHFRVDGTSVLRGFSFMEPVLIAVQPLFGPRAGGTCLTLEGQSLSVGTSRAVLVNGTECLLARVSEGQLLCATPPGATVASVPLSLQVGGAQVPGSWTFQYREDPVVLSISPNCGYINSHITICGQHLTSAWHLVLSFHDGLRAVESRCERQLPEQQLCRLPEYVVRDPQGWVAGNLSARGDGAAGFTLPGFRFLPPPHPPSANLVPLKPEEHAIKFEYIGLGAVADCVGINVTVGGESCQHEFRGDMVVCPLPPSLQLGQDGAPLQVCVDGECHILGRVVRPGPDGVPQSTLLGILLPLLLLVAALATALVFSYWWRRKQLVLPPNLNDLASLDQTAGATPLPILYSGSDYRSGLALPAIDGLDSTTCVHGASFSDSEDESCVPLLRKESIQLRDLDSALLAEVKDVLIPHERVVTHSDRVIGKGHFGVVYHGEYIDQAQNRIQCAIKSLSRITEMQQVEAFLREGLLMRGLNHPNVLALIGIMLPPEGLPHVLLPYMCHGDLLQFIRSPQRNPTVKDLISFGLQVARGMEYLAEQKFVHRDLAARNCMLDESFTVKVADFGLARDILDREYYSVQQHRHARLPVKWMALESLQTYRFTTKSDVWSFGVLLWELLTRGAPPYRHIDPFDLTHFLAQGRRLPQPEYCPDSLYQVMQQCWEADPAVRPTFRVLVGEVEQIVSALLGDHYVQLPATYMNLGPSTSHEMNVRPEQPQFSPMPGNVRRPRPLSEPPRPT
Procedure: as §1

EGFR = EGFR (Homo sapiens, UniProt P00533); experiment: SelectScreen Z′-LYTE kinase assay; assay type: biochemical
Sequence of EGFR (P00533 25-1210): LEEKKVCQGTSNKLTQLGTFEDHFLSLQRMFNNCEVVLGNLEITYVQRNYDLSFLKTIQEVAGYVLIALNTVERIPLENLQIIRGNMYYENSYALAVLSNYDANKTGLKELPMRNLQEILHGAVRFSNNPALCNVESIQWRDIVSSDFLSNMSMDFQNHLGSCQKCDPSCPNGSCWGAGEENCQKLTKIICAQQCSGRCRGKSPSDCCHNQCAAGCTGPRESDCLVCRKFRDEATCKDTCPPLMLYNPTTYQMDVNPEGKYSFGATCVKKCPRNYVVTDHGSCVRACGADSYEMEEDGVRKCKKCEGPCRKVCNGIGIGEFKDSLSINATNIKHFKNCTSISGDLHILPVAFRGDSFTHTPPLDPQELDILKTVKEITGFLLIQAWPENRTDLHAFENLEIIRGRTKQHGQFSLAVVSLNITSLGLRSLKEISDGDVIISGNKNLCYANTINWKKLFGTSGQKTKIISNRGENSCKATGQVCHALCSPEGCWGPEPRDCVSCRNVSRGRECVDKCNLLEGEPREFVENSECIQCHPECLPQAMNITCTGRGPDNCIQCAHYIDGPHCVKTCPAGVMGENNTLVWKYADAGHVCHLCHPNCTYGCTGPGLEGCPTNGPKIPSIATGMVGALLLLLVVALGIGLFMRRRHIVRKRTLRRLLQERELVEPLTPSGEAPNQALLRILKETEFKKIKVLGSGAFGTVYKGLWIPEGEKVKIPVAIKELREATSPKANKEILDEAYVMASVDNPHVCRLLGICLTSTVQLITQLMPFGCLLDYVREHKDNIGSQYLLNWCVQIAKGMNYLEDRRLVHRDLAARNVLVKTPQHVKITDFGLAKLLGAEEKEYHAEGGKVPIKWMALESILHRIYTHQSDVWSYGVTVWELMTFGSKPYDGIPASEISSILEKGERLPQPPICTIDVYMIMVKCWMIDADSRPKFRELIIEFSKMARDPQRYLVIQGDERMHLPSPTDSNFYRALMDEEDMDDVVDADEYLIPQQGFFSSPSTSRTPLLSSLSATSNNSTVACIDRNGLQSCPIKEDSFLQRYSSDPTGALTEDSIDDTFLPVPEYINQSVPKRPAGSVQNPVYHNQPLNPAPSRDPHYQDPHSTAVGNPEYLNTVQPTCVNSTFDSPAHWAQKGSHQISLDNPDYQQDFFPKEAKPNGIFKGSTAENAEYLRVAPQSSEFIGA
Procedure: as §1

FGR = FGR (Homo sapiens, UniProt P09769); experiment: SelectScreen Z′-LYTE kinase assay; assay type: biochemical
Procedure: as §1

FLT1 = FLT1 (Homo sapiens, UniProt P17948); experiment: SelectScreen Z′-LYTE kinase assay; assay type: biochemical
Procedure: as §1

Kd (STAT5b): > 10 µM
IC50 (BRD4): 2.45 ± 0.11 nM
BRD4 inhibition relative to RVX-208 (BRD4; IC50 ratio vs RVX-208): about 16 fold
IC50 (PTK6): > 10 µM
inhibition at 1 µM (PTK6): 2.34%
IC50 (AXL): > 10 µM
inhibition at 1 µM (AXL): 1.83%
IC50 (KIT): > 10 µM
inhibition at 1 µM (KIT): 0.25%
IC50 (PTK2B): > 10 µM
inhibition at 1 µM (PTK2B): 0.73%
IC50 (ABL1): > 10 µM
inhibition at 1 µM (ABL1): 0.31%
IC50 (NTRK2): > 10 µM
inhibition at 1 µM (NTRK2): 1.22%
IC50 (ZAP70): > 10 µM
inhibition at 1 µM (ZAP70): 0.68%
IC50 (CSK): > 10 µM
inhibition at 1 µM (CSK): 0.74%
IC50 (MERTK): > 10 µM
inhibition at 1 µM (MERTK): 0.07%
IC50 (SRC): > 10 µM
inhibition at 1 µM (SRC): 3.24%
IC50 (TNK2): > 10 µM
inhibition at 1 µM (TNK2): 0.93%
IC50 (EPHA3): > 10 µM
inhibition at 1 µM (EPHA3): 0.89%
IC50 (TYK2): > 10 µM
inhibition at 1 µM (TYK2): 5.33%
IC50 (BMX): > 10 µM
inhibition at 1 µM (BMX): 3.05%
IC50 (TYRO3): > 10 µM
inhibition at 1 µM (TYRO3): 0.04%
IC50 (ERBB2): > 10 µM
inhibition at 1 µM (ERBB2): 4.43%
IC50 (TXK): > 10 µM
inhibition at 1 µM (TXK): 0.09%
IC50 (MET): > 10 µM
inhibition at 1 µM (MET): 0.68%
IC50 (ROS1): > 10 µM
inhibition at 1 µM (ROS1): 0.97%
IC50 (FGFR4): > 10 µM
inhibition at 1 µM (FGFR4): 0.68%
IC50 (EPHA2): > 10 µM
inhibition at 1 µM (EPHA2): 0.5%
IC50 (FRK): > 10 µM
inhibition at 1 µM (FRK): 0.95%
IC50 (FGFR3): > 10 µM
inhibition at 1 µM (FGFR3): 2.84%
IC50 (EPHB3): > 10 µM
inhibition at 1 µM (EPHB3): 0.98%
IC50 (EPHB4): > 10 µM
inhibition at 1 µM (EPHB4): 0.97%
IC50 (BTK): > 10 µM
inhibition at 1 µM (BTK): 0.11%
IC50 (MST1R): > 10 µM
inhibition at 1 µM (MST1R): 5.02%
IC50 (EGFR): > 10 µM
inhibition at 1 µM (EGFR): 0.37%
IC50 (FGR): > 10 µM
inhibition at 1 µM (FGR): 0.28%
IC50 (FLT1): > 10 µM
inhibition at 1 µM (FLT1): 0.14%
Structure (SMILES): CCS(=O)(=O)Cc1cnc(Oc2c(F)cc(F)cc2OCCCCOc2ccc(/C=C/c3cc(OC)cc(OC)c3)cc2)c(-c2cc(C)c3c(=O)[nH]ccn23)c1 [BST-4]
